Test results as given in patent EP0144996A2, “Substituted spiro pyridine derivatives, pharmaceutical compositions containing them and processes for the preparation of such compounds and compositions” (SCHERING CORPORATION, priority 1983, dated 1985).

Columns and labels:
[1] = system: allergen-induced histamine release; test: Allergen-induced histamine release from sensitized human tissue; type: cell-based
[2] = system: anaphylactic bronchospasm; test: Inhibition of anaphylactic bronchospasm in sensitized guinea pigs with antigen-induced bronchoconstriction; type: in vivo; details: oral dose of 5 mg/kg
Description: The anti-allergy method of this invention is identified by tests which measure a compound's inhibition of anaphylactic bronchospasm in sensitized guinea pigs having antigen-induced bronchoconstriction. […] The compounds are effective non-adrenergic, non-anticholinergic antianaphylactic agents. When administered orally they are active at doses from about 0.1 to 50 mg/kg of body weight; when administered parenterally, e.g., intravenously, the compounds are active at dosages of from about 0.01 to 5 mg/kg body weight; when administered by inhalation (aerosol or nebulizer) the compounds are active at dosages of about 0.1 to 5 mg per puff, and one to four puffs may be taken every 4 hours.

[3] = system: allergen-induced histamine release; test: Allergen-induced histamine release from sensitized guinea pig tissue; type: cell-based

In the case of `O=C1c2cccnc2N(c2ccccc2)C(=O)C12CCCCO2` (stereo not drawn) [1-phenyl-3',4',5',6'-tetrahydro-spiro[1,8-naphthyridine-3,2'-(2H)pyran]-2,4-dione], the “inhibition of allergen-induced histamine release” value [1] is reported as “inhibit allergen-induced histamine release”, the “inhibition of anaphylactic bronchospasms” value [2] is reported as “inhibit anaphylactic bronchospasms” and the “inhibition of allergen-induced histamine release” value [3] is reported as “inhibit allergen-induced histamine release”.
